Data reported in patent publication US20260174721A1, “AGENT FOR RESTORING METAL HOMEOSTASIS” (Oxford Antibiotic Group GmbH, priority 2022, published 2026).
Like-named read-outs stand apart in the source and are kept apart here.

Key:
[1] = tested on: transgenic C. elegans strain CL2659; test: β-amyloid test system: delay of paralysis in transgenic C. elegans strain CL2659 (Alzheimer testing); type: in vivo, Caenorhabditis elegans; settings: CL2659 stage L3 larvae, 48 hours, tested at 1 mg/ml, 100 μg/ml, 10 μg/ml, — = no effect even at 1 mg/ml; for minimal effective concentration: Caenorhabditis elegans, read-out: Alzheimer: concentration range in which a delay in paralysis was observed
Method: For this purpose, stage L3 worm larvae were used at a density of 10-20 worms per well. The expression of β-amyloid in the muscle cells was induced by increasing the temperature, and the associated paralysis was recorded at regular intervals until the end of the test after 48 hours.
(§1) For this purpose, the above substances were tested at concentrations of 1 mg/ml, 100 μg/ml, and 10 μg/ml in comparison with quercetin as a […] control.

[2] = tested on: transgenic C. elegans strain NL5901; test: α-synuclein test system: reduction of α-synuclein-GFP expression in transgenic C. elegans strain NL5901 (Parkinson testing); type: in vivo, Caenorhabditis elegans; settings: NL5901, GFP readout 24 to 48 hours, tested at 1 mg/ml, 100 μg/ml, 10 μg/ml, — = no effect even at 1 mg/ml; for minimal effective concentration: Caenorhabditis elegans, read-out: Parkinson: concentration range in which a reduction in α-synuclein expression was detectable
Method: (§2) The same substances as above were tested in a 96-well procedure in the initially mentioned screening assay using the nematode Caenorhabditis elegans (Pretsch et al., see above) in a standardized α-synuclein test system using the transgenic C. elegans strain NL5901 for their potential suitability as an agent for treating Parkinson's disease. This worm strain expresses human α-synuclein bound to green fluorescent protein (GFP) in all muscle cells. GFP labeling allows a direct detection of expressed protein levels using a multiplate reader for 24 to 48 hours.
(§3) For this purpose, the substances were again tested at concentrations of 1 mg/ml, 100 μg/ml, and 10 μg/ml, but this time in comparison to the initially mentioned Parkinson therapeutic agent levodopa as a control.

Caenorhabditis elegans = test: C. elegans nematode assay, overall rating over the Alzheimer and Parkinson tests; type: in vivo; settings: for minimal effective concentration: Caenorhabditis elegans, read-out: Score
Method: The substances (1) to (41) and (101) to (108), prepared in the above synthesis examples or purchased, were tested for their potential suitability as an agent for treating Alzheimer's disease in a 96-well procedure in the initially mentioned screening assay using the nematode Caenorhabditis elegans (Pretsch et al., see above) in a standardized β-amyloid test system using the transgenic C. elegans strain CL2659. For this purpose, stage L3 worm larvae were used at a density of 10-20 worms per well. The expression of β-amyloid in the muscle cells was induced by increasing the temperature, and the associated paralysis was recorded at regular intervals until the end of the test after 48 hours.
as §1, §2, §3

[3] = rating from the effective concentration in both tests

Structure (SMILES) | minimal effective concentration [1] | minimal effective concentration [2] | minimal effective concentration (Caenorhabditis elegans; [3]) | minimal effective concentration (Caenorhabditis elegans) | further results
O=C(O)CC(=O)O [(1), malonic acid] | > 100 µg/mL | > 100 µg/mL | > 100 µg/mL |  | concentration from which the compound was effective (Caenorhabditis elegans; both tests): > 100 µg/mL
NC(=O)CC(N)=O [(2), malonic acid diamide] | > 10 µg/mL | > 10 µg/mL | 10 to 100 µg/mL |  | 
O=C([O-])CC(=O)[O-].[Na+].[Na+] [(3), disodium malonate] |  |  |  |  | Alzheimer: concentration range in which a delay in paralysis was observed [1]: >10 µg/mL; Parkinson: concentration range in which a reduction in α-synuclein expression was detectable [2]: >10 µg/mL; Score (Caenorhabditis elegans; [3]): ++ (a compound that is already effective at a concentration >10 μg/ml and therefore rated “++”)
COC(=O)CC(=O)OC [(4), malonic acid dimethyl ester] | > 10 µg/mL | > 10 µg/mL | 10 to 100 µg/mL |  | 
COC(=O)CC(=O)[O-].[K+] [(5), malonic acid methyl ester potassium salt] |  |  |  | 10 to 100 µg/mL | 
COC(=O)CC(N)=O [(6), malonic acid methyl ester amide] |  |  |  |  | Alzheimer: concentration range in which a delay in paralysis was observed [1]: >100 µg/mL; Parkinson: concentration range in which a reduction in α-synuclein expression was detectable [2]: >100 µg/mL; Score (Caenorhabditis elegans; [3]): + (a compound that is only effective above 100 μg/ml and therefore rated “+”)
NCCCNC(=O)CC(=O)O [(7), N-(3-aminopropyl)malonic acid amide] | > 100 µg/mL | > 100 µg/mL | > 100 µg/mL |  | 
CCOC(=O)CC(=O)OC12CC3CC(CC(C3)C1)C2 [(9), malonic acid adamantan-1-yl ethyl ester] | > 10 µg/mL | > 10 µg/mL | 10 to 100 µg/mL |  | 
O=C(O)CC(=O)OC12CC3CC(CC(C3)C1)C2 [(10), malonic acid adamantan-1-yl ester N-(3-aminopropyl)amide] | > 10 µg/mL | > 10 µg/mL | 10 to 100 µg/mL |  | 
CN(CCCN)C(=O)CC(=O)OC12CC3CC(CC(C3)C1)C2 [(11), malonic acid adamantan-1-yl ester N-(3-aminopropyl)-N-methylamide] | > 10 µg/mL | > 10 µg/mL | 10 to 100 µg/mL |  | 
O=C(CC(=O)N1CCNCC1)OC12CC3CC(CC(C3)C1)C2 [(12), malonic acid adamantan-1-yl ester piperazine amide] |  |  |  | 10 to 100 µg/mL | 
NCCCC(=O)N1CCN(C(=O)CC(=O)OC23CC4CC(CC(C4)C2)C3)CC1 [(13), malonic acid adamantan-1-yl ester 4-(4-aminobutyryl)piperazine amide] | > 10 µg/mL | > 10 µg/mL | 10 to 100 µg/mL |  | 
NC1CCN(C(=O)CC(=O)OC23CC4CC(CC(C4)C2)C3)CC1 [(14), malonic acid adamantan-1-yl ester 4-aminopiperidine amide] | > 10 µg/mL | > 10 µg/mL | 10 to 100 µg/mL |  | 
NCCCC(=O)NC1CCN(C(=O)CC(=O)OC23CC4CC(CC(C4)C2)C3)CC1 [(15), malonic acid adamantan-1-yl ester (4-(4-aminobutyryl)amino)piperidine amide] | > 10 µg/mL | > 10 µg/mL | 10 to 100 µg/mL |  | 
COC(=O)CC(=O)NC12CC3CC(CC(C3)C1)C2 [(16), malonic acid methyl ester N-(adamantan-1-yl)amide] | > 10 µg/mL | > 10 µg/mL | 10 to 100 µg/mL |  | 
O=C(O)CC(=O)NC12CC3CC(CC(C3)C1)C2 [(17), N-(adamantan-1-yl)malonic acid amide] | > 10 µg/mL | > 10 µg/mL | 10 to 100 µg/mL |  | 
NCCCNC(=O)CC(=O)NC12CC3CC(CC(C3)C1)C2 [(18), N-adamantan-1-yl-N′-(3-aminopropyl)malonic acid diamide] | > 100 µg/mL | > 100 µg/mL | > 100 µg/mL |  | 
CN(CCCN)C(=O)CC(=O)NC12CC3CC(CC(C3)C1)C2 [(19), N-adamantan-1-yl-N′-(3-aminopropyl)-N′-methyl malonic acid diamide] | > 10 µg/mL | > 10 µg/mL | 10 to 100 µg/mL |  | 

Structure (SMILES) | minimal effective concentration [1] | minimal effective concentration [2] | minimal effective concentration (Caenorhabditis elegans; [3]) | minimal effective concentration (Caenorhabditis elegans) | further results
NCCCNC(=O)CC(=O)N1CCOCC1 [(22), N-(3-aminopropyl)-N′-morpholine malonic acid diamide] |  |  |  | 10 to 100 µg/mL | 
NCCCNC(=O)CC(=O)N1CCCCC1 [(23), N-(3-aminopropyl)-N′-piperidine malonic acid diamide] |  |  |  | 10 to 100 µg/mL | 
O=C(CC(=O)N1CCN(Cc2cccc(C(F)(F)F)c2)CC1)OC12CC3CC(CC(C3)C1)C2 [(29), malonic acid adamantan-1-yl ester 4-(3-trifluoromethylbenzyl)piperazine amide] |  |  |  | 10 to 100 µg/mL | 
O=C(CC(=O)N1CCN(Cc2cccc(F)c2)CC1)OC12CC3CC(CC(C3)C1)C2 [(30), malonic acid adamantan-1-yl ester 4-(3-fluorobenzyl)piperazine amide] |  |  |  | 10 to 100 µg/mL | 
COc1ccccc1N1CCN(C(=O)CC(=O)OC23CC4CC(CC(C4)C2)C3)CC1 [(31), malonic acid adamantan-1-yl ester 4-(2-methoxyphenyl)piperazine amide] |  |  |  | 10 to 100 µg/mL | 
CC12CC3CC(C)(C1)CC(NC(=O)CC(=O)N1CCNCC1)(C3)C2 [(35), N-(3,5-dimethyladamantan-1-yl)-N′-piperazine malonic acid diamide] |  |  |  | 10 to 100 µg/mL | 
CC12CC3CC(C)(C1)CC(NC(=O)CC(=O)N1CCN(Cc4cccc(C(F)(F)F)c4)CC1)(C3)C2 [(36), N-(3,5-dimethyladamantan-1-yl)-N′-4-(3-trifluoromethylbenzyl)piperazine malonic acid diamide] |  |  |  | 10 to 100 µg/mL | 
CC12CC3CC(C)(C1)CC(NC(=O)CC(=O)N1CCN(Cc4cccc(F)c4)CC1)(C3)C2 [(37), N-(3,5-dimethyladamantan-1-yl)-N′-4-(3-fluorobenzyl)piperazine malonic acid diamide] |  |  |  | 10 to 100 µg/mL | 
COc1ccc(N2CCN(C(=O)CC(=O)NC34CC5CC(C)(CC(C)(C5)C3)C4)CC2)cc1 [(39), N-(3,5-dimethyladamantan-1-yl)-N′-4-(4-methoxyphenyl)piperazine malonic acid diamide] |  |  |  | 10 to 100 µg/mL | 
COc1ccc(N2CCN(C(=O)CC(=O)NC34CC5CC(C)(CC(C)(C5)C3)C4)CC2)c(OC)c1 [(40), N-(3,5-dimethyladamantan-1-yl)-N′-4-(2,4-dimethoxyphenyl)piperazine malonic acid diamide] |  |  |  | 10 to 100 µg/mL | 
CC(C)(C(=O)O)C(=O)O [(101), Dimethyl malonic acid, reference compound] |  |  |  |  | efficacy in the C. elegans assay (Caenorhabditis elegans; both tests): neither dimethyl malonic acid (101) nor dimethyl malonic acid dimethyl ester (102) proved to be effective; Score (Caenorhabditis elegans; [3]): −
COC(=O)C(C)C(=O)OC [(102), Methyl malonic acid dimethyl ester, reference compound] |  |  |  |  | efficacy in the C. elegans assay (Caenorhabditis elegans; both tests): neither dimethyl malonic acid (101) nor dimethyl malonic acid dimethyl ester (102) proved to be effective; Score (Caenorhabditis elegans; [3]): −
NCCCNC(=O)C12CC3CC(CC(C3)C1)C2 [(103), 1-Adamantane carboxylic acid-N-(3-aminopropyl)amide, reference compound] |  |  |  |  | Score (Caenorhabditis elegans; [3]): −
CC(C)(C)OC(=O)NCCCN [(104), 3-Aminopropyl carbamic acid tert-butyl ester, reference compound] |  |  |  |  | Score (Caenorhabditis elegans; [3]): −
CNCCCNC(=O)OC(C)(C)C [(105), 3-(Methylamino)propyl carbamic acid tert-butyl ester, reference compound] |  |  |  |  | Score (Caenorhabditis elegans; [3]): −
OC12CC3CC(CC(C3)C1)C2 [(106), 1-Adamantanol, reference compound] |  |  |  |  | Score (Caenorhabditis elegans; [3]): −
NC12CC3CC(CC(C3)C1)C2 [(107), 1-Adamantanamine, reference compound] |  |  |  |  | Score (Caenorhabditis elegans; [3]): −
NCCCNC(=O)CC(=O)N1CCCc2ccccc21 [(108), N-(3-aminopropyl)-N′-tetrahydroquinoline malonic acid diamide] |  |  |  |  | efficacy in the C. elegans assay (Caenorhabditis elegans; both tests): ineffectiveness; Score (Caenorhabditis elegans; [3]): −
